What was measured:
MDA-MB-231 = assay: Antiproliferative activity against human MDA-MB-231 cells; assay type: functional, cell-based
MGC-803 = assay: Antiproliferative activity against human MGC-803 cells; assay type: functional, cell-based
A549 = assay: Antiproliferative activity against human A549 cells; assay type: functional, cell-based
[1] = Toxicity in NOD/SCID mouse xenografted with patient-derived breast cancer cells assessed as change in body weight at 5 to 15 mg/kg, ip administered once daily for 20 days; settings: in vivo, 480 h

Structure (SMILES)	IC50 (MDA-MB-231) [µM]	IC50 (MGC-803) [µM]	IC50 (A549) [µM]	Activity [1]
O=C(NCc1ccc(C2CCCCC2)cc1)c1cc(-c2ccccc2)nc2cc(O)ccc12	50	14.6	16.6	–
COc1ccn2c(CC(=O)Nc3ccc(C4CCCCC4)cc3)c(-c3ccccc3)nc2c1	5.4	4.7	5.6	–
O=C(O)COc1ccc2c(C(=O)Nc3ccc(C4CCCCC4)cc3)cc(-c3ccccc3)nc2c1	> 100	> 100	> 100	–
COc1ccc2c(C(=O)Nc3ccc(-c4ccc5cc[nH]c5c4)cc3)cc(-c3ccccc3)nc2c1	> 100	> 100	> 100	–
COc1ccn2c(CC(=O)Nc3ccc4c(c3)S(=O)(=O)C=C4)c(-c3ccc4ccccc4c3)nc2c1	1.4	1.5	1	–
O=C(Cc1c(-c2ccccc2)nc2cc(-c3ccccc3)ccn12)Nc1ccc2c(c1)S(=O)(=O)C=C2	2.4	1.7	1.1	–
COc1ccn2c(CC(=O)Nc3ccc4c(c3)S(=O)(=O)C=C4)c(-c3cccs3)nc2c1	1.4	1.3	1.1	–
COc1cccn2c(CC(=O)Nc3ccc4c(c3)S(=O)(=O)C=C4)c(-c3ccccc3)nc12	2.2	1.7	1	–
CCOC(=O)COc1ccc2c(C(=O)Nc3ccc(C4CCCCC4)cc3)cc(-c3ccccc3)nc2c1	> 100	> 100	> 100	–
COc1ccc2c(C(=O)Nc3ccc(-c4cccnc4)cc3)cc(-c3ccccc3)nc2c1	> 100	64.8	> 100	–
COc1ccc2c(C(=O)Nc3ccc(C4CCCCC4)cc3)cc(-c3ccccc3)nc2c1	5.9	4.9	4.9	–
COc1ccn2c(CC(=O)Nc3ccc4c(c3)S(=O)(=O)C=C4)c(-c3ccc(S(C)(=O)=O)cc3)nc2c1	5.8	6.4	5.8	–
COc1ccn2c(CC(=O)Nc3ccc4c(c3)S(=O)(=O)C=C4)c(-c3ccc([N+](=O)[O-])cc3)nc2c1	4.4	2.6	1.7	–
COc1ccc2c(C(=O)NCc3ccc(C4CCCCC4)cc3)cc(-c3ccccc3)nc2c1	> 100	> 100	> 100	–
CCCCc1ccc(NC(=O)c2cc(-c3ccccc3)nc3cc(OC)ccc23)cc1	> 100	39.6	40.9	–
O=C(Cc1c(-c2ccccc2)nc2cc(Cl)ccn12)Nc1ccc2c(c1)S(=O)(=O)C=C2	1.1	1.3	0.7	–
COc1ccc2c(C(=O)Nc3ccc(C(C)C)cc3)cc(-c3ccccc3)nc2c1	> 100	> 100	> 100	–
O=C(O)COc1ccc2c(C(=O)NCc3ccc(C4CCCCC4)cc3)cc(-c3ccccc3)nc2c1	> 100	> 100	> 100	–
COc1ccc(-c2ccc(NC(=O)c3cc(-c4ccccc4)nc4cc(OC)ccc34)cc2)cc1	21	5.8	4.9	–
O=C(Cc1c(-c2ccc([N+](=O)[O-])cc2)nc2ccccn12)Nc1ccc2c(c1)S(=O)(=O)C=C2	6.5	5.2	5.4	–
Cc1ccc2nc(-c3ccc(C#N)cc3)c(CC(=O)Nc3ccc4c(c3)S(=O)(=O)C=C4)n2c1	2	2.4	2.5	–
Cc1ccc2nc(-c3ccc(Cl)cc3)c(CC(=O)Nc3ccc4c(c3)S(=O)(=O)C=C4)n2c1	2	1.6	1.2	–
Cc1ccc(-c2nc3ccccn3c2CC(=O)Nc2ccc3c(c2)S(=O)(=O)C=C3)cc1	4.1	2.7	5.5	–
Cn1cc(-c2ccn3c(CC(=O)Nc4ccc5c(c4)S(=O)(=O)C=C5)c(-c4ccccc4)nc3c2)cn1	1.4	0.7	0.8	–
O=C(Nc1nnc(-c2ccco2)o1)c1cc(-c2ccccc2)nc2ccccc12	18.2	7.43	11.6	Non-Toxic
COc1ccc(NC(=O)c2cc(-c3ccccc3)nc3cc(OC)ccc23)cc1	> 100	> 100	> 100	–
COc1ccc2c(C(=O)Nc3ccc(F)cc3)cc(-c3ccccc3)nc2c1	> 100	> 100	> 100	–
COc1ccc2c(C(=O)Nc3ccc(C)cc3)cc(-c3ccccc3)nc2c1	> 100	> 100	> 100	–

— ChEMBL document CHEMBL4825680, “Structure-based discovery of potent and selective small-molecule inhibitors targeting signal transducer and activator of transcription 3 (STAT3)” (Eur J Med Chem, 2021)
